pIC50: −log10 of the molar value.
Molecular target: bovine cardiac myofibrils (full-length cardiac myosin ATPase in the native sarcomere) (Bos taurus (Bovine), UniProt Q9BE39)
Test: Skinned bovine cardiac myofibril ATPase assay (PK/LDH-coupled)
Format: biochemical
Details: Ca2+ activating to 75% of maximal rate; for CDMF75 IC15: concentration giving 15% inhibition; for pIC50: read-out: CDMF75 IC50
Outline: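 Triton-skinned bovine left-ventricle myofibrils (1 mg/mL) in PM 12 buffer (12 mM PIPES, 2 mM MgCl2, pH 6.8) with 50 μM ATP, 0.6 mM EGTA and CaCl2 set for 50% or 75% activation. Steady-state ATPase inhibition followed by PK/LDH-coupled NADH oxidation at 340 nm.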

Chain of bovine cardiac myofibrils (full-length cardiac myosin ATPase in the native sarcomere) (Q9BE39 whole entry): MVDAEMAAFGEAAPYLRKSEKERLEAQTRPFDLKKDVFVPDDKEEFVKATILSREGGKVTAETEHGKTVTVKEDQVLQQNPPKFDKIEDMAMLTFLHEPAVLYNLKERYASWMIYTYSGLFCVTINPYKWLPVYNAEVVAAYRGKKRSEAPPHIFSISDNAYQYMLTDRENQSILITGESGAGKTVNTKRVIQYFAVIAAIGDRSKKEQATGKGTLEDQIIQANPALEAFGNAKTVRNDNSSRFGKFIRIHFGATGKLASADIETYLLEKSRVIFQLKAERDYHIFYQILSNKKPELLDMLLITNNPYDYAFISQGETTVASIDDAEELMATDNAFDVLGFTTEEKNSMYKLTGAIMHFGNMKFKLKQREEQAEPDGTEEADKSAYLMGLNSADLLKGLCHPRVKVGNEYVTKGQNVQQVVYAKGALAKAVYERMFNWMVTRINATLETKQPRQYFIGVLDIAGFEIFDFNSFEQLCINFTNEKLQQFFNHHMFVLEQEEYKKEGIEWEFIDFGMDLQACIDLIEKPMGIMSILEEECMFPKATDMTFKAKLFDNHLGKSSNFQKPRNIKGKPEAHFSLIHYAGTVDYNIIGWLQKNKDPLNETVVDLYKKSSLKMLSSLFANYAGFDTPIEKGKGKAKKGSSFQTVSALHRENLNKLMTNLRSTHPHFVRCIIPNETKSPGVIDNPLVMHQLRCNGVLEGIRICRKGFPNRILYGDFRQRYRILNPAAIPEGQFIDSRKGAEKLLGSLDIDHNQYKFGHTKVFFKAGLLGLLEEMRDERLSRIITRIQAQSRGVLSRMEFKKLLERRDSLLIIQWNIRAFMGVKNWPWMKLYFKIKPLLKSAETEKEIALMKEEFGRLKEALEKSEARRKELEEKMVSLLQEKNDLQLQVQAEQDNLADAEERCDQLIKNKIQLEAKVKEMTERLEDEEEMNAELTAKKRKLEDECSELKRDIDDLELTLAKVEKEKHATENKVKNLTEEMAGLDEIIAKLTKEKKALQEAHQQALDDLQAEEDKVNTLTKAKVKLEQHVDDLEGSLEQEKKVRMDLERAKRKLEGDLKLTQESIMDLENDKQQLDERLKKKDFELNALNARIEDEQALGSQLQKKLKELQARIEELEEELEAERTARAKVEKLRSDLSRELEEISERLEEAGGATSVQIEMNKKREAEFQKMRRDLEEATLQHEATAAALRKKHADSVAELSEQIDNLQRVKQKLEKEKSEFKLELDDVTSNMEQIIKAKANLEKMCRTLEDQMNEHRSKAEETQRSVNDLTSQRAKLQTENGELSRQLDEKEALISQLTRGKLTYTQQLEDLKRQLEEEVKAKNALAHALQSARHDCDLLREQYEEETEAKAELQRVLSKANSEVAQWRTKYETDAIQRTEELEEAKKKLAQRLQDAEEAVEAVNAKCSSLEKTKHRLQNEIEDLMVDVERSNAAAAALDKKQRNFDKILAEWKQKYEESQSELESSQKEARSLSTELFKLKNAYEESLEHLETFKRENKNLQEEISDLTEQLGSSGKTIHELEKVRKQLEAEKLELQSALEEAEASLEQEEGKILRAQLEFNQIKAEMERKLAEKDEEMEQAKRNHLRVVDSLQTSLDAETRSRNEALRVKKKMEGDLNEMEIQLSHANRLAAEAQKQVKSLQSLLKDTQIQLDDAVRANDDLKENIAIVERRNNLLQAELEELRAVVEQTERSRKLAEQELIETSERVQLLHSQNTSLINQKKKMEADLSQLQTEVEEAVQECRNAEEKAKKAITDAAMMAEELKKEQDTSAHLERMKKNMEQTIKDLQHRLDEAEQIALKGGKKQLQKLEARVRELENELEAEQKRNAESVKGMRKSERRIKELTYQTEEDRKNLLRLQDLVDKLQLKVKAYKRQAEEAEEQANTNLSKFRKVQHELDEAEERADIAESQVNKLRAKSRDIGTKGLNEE
Chain of bovine cardiac myofibrils (full-length cardiac myosin ATPase in the native sarcomere) (P85100 whole entry partner): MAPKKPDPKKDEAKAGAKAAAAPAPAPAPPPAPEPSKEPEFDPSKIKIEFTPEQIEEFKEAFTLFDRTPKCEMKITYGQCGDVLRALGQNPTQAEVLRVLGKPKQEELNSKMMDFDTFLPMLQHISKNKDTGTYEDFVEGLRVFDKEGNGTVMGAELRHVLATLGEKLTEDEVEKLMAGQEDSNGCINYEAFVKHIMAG
Chain of bovine cardiac myofibrils (full-length cardiac myosin ATPase in the native sarcomere) (Q3SZE5 whole entry partner): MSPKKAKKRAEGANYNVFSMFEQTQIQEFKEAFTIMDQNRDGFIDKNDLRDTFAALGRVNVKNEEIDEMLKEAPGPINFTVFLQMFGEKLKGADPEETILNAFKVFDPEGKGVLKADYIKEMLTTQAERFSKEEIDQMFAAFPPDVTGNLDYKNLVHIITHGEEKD

SMILES	CDMF75 IC15	pIC50
Cc1cc(C(=O)NC2CCc3cc(-c4cc(C(F)F)no4)ccc32)ccn1 (centres unmarked) [Compound 170, N-(5-(3-(difluoromethyl)isoxazol-5-yl)-2,3-dihydro-1H-inden-1-yl)-2-methylisonicotinamide]	3.8 µM	4.80
Cc1cc(C(=O)N[C@@H]2CCc3cc(-c4cc(C(F)F)no4)ccc32)ccn1 [Compound 171, (R)-N-(5-(3-(difluoromethyl)isoxazol-5-yl)-2,3-dihydro-1H-inden-1-yl)-2-methylisonicotinamide]	1.7 µM	5.16
Cc1cc(C(=O)N[C@@H]2CCc3cc(-c4nc(C)co4)ccc32)ccn1 [Compound 172, (R)-2-methyl-N-(5-(4-methyloxazol-2-yl)-2,3-dihydro-1H-inden-1-yl)isonicotinamide]	8.1 µM	< 4.41
Cc1cc(C(=O)NC2CCc3cc(-c4nc(C)co4)ccc32)ccn1 (centres unmarked) [Compound 173, 2-methyl-N-(5-(4-methyloxazol-2-yl)-2,3-dihydro-1H-inden-1-yl)isonicotinamide]	39.2 µM	< 4.41
Cn1nccc1C(=O)N[C@@H]1CCc2cc(-c3noc(C4CCO4)n3)ccc21 (stereo partly drawn) [Compound 174, 1-methyl-N-((1R)-5-(5-(oxetan-2-yl)-1,2,4-oxadiazol-3-yl)-2,3-dihydro-1H-inden-1-yl)-1H-pyrazole-5-carboxamide]	1.1 µM	5.42
COCc1nc(-c2ccc3c(c2)CC[C@H]3NC(=O)c2ccnn2C)no1 [Compound 175, (R)-N-(5-(5-(methoxymethyl)-1,2,4-oxadiazol-3-yl)-2,3-dihydro-1H-inden-1-yl)-1-methyl-1H-pyrazole-5-carboxamide]	0.4 µM	5.85
COCc1nc(-c2ccc3c(c2)CC[C@H]3NC(=O)c2ccnc(C)c2)no1 [Compound 176, (R)-N-(5-(5-(methoxymethyl)-1,2,4-oxadiazol-3-yl)-2,3-dihydro-1H-inden-1-yl)-2-methylisonicotinamide]	1.2 µM	5.35
COCc1nc(-c2ccc3c(c2)CC[C@H]3NC(=O)c2cnn(C)c2)no1 [Compound 178, (R)-N-(5-(5-(methoxymethyl)-1,2,4-oxadiazol-3-yl)-2,3-dihydro-1H-inden-1-yl)-1-methyl-1H-pyrazole-4-carboxamide]	1.9 µM	5.17
COCc1nc(-c2ccc3c(c2)CC[C@H]3NC(=O)c2cc(C)nn2C)no1 [Compound 179, (R)-N-(5-(5-(methoxymethyl)-1,2,4-oxadiazol-3-yl)-2,3-dihydro-1H-inden-1-yl)-1,3-dimethyl-1H-pyrazole-5-carboxamide]	0.7 µM	5.66
COCc1nc(-c2ccc3c(c2)CC[C@H]3NC(=O)c2cnn(C)c2C)no1 [Compound 181, (R)-N-(5-(5-(methoxymethyl)-1,2,4-oxadiazol-3-yl)-2,3-dihydro-1H-inden-1-yl)-1,5-dimethyl-1H-pyrazole-4-carboxamide]	1.1 µM	5.40
COCc1nc(-c2ccc3c(c2)CC[C@H]3NC(=O)c2cn(C)nc2C)no1 [Compound 182, (R)-N-(5-(5-(methoxymethyl)-1,2,4-oxadiazol-3-yl)-2,3-dihydro-1H-inden-1-yl)-1,3-dimethyl-1H-pyrazole-4-carboxamide]	1.0 µM	5.39
Cn1cc(C(=O)N[C@@H]2CCc3cc(-c4noc(C5CC5)n4)ccc32)cn1 [Compound 185, (R)-N-(5-(5-cyclopropyl-1,2,4-oxadiazol-3-yl)-2,3-dihydro-1H-inden-1-yl)-1-methyl-1H-pyrazole-4-carboxamide]	0.8 µM	5.57
Cc1cc(C(=O)N[C@@H]2CCc3cc(-c4nc(C)no4)ccc32)n(C)n1 [Compound 194, (R)-1,3-dimethyl-N-(5-(3-methyl-1,2,4-oxadiazol-5-yl)-2,3-dihydro-1H-inden-1-yl)-1H-pyrazole-5-carboxamide]	0.7 µM	5.59

Further lines, results first:

CDMF75 IC15	pIC50	SMILES
0.8 µM	5.51	Cc1nc(-c2ccc3c(c2)OC[C@H]3NC(=O)c2cnn(C)c2C)no1 [Compound 163, (S)-1,5-dimethyl-N-(6-(5-methyl-1,2,4-oxadiazol-3-yl)-2,3-dihydrobenzofuran-3-yl)-1H-pyrazole-4-carboxamide]
8.2 µM	< 4.41	Cc1nc(-c2ccc3c(c2)CC[C@H]3NC(=O)c2nncn2C)no1 [Compound 164, (R)-4-methyl-N-(5-(5-methyl-1,2,4-oxadiazol-3-yl)-2,3-dihydro-1H-inden-1-yl)-4H-1,2,4-triazole-3-carboxamide]
4.6 µM	4.63	Cn1cnnc1C(=O)N[C@@H]1CCc2cc(-c3noc(C(F)F)n3)ccc21 [Compound 165, (R)-N-(5-(5-(difluoromethyl)-1,2,4-oxadiazol-3-yl)-2,3-dihydro-1H-inden-1-yl)-4-methyl-4H-1,2,4-triazole-3-carboxamide]
2.0 µM	5.15	Cc1nc(-c2ccc3c(c2)OCC3NC(=O)c2cnc(C)o2)no1 (centres unmarked) [Compound 166, 2-methyl-N-(6-(5-methyl-1,2,4-oxadiazol-3-yl)-2,3-dihydrobenzofuran-3-yl)oxazole-5-carboxamide]
1.0 µM	5.42	Cc1nc(-c2ccc3c(c2)OC[C@H]3NC(=O)c2cnc(C)o2)no1 [Compound 167, (S)-2-methyl-N-(6-(5-methyl-1,2,4-oxadiazol-3-yl)-2,3-dihydrobenzofuran-3-yl)oxazole-5-carboxamide]
1.1 µM	5.42	Cc1cc(C(=O)NC2CCc3cc(-c4cc(C(F)F)on4)ccc32)ccn1 (centres unmarked) [Compound 168, N-(5-(5-(difluoromethyl)isoxazol-3-yl)-2,3-dihydro-1H-inden-1-yl)-2-methylisonicotinamide]
0.5 µM	5.74	Cc1cc(C(=O)N[C@@H]2CCc3cc(-c4cc(C(F)F)on4)ccc32)ccn1 [Compound 169, (R)-N-(5-(5-(difluoromethyl)isoxazol-3-yl)-2,3-dihydro-1H-inden-1-yl)-2-methylisonicotinamide]
0.5 µM	5.74	COCc1nc(-c2ccc3c(c2)CC[C@H]3NC(=O)c2ocnc2C)no1 [Compound 177, (R)-N-(5-(5-(methoxymethyl)-1,2,4-oxadiazol-3-yl)-2,3-dihydro-1H-inden-1-yl)-4-methyloxazole-5-carboxamide]
1.7 µM	5.24	COCc1nc(-c2ccc3c(c2)CC[C@H]3NC(=O)c2oc(C)nc2C)no1 [Compound 180, (R)-N-(5-(5-(methoxymethyl)-1,2,4-oxadiazol-3-yl)-2,3-dihydro-1H-inden-1-yl)-2,4-dimethyloxazole-5-carboxamide]
0.7 µM	5.62	Cn1cc(C(=O)N[C@@H]2CCc3cc(-c4noc(C(F)F)n4)ccc32)cn1 [Compound 186, (R)-N-(5-(5-(difluoromethyl)-1,2,4-oxadiazol-3-yl)-2,3-dihydro-1H-inden-1-yl)-1-methyl-1H-pyrazole-4-carboxamide]
11.5 µM	< 4.41	Cc1cc(C(=O)NC2COc3cc(-c4noc(C)n4)cnc32)ccn1 (centres unmarked) [Compound 187, 2-methyl-N-(6-(5-methyl-1,2,4-oxadiazol-3-yl)-2,3-dihydrofuro[3,2-b]pyridin-3-yl)isonicotinamide]
5.3 µM	4.63	Cc1cc(C(=O)N[C@@H]2COc3cc(-c4noc(C)n4)cnc32)ccn1 [Compound 188, (S)-2-methyl-N-(6-(5-methyl-1,2,4-oxadiazol-3-yl)-2,3-dihydrofuro[3,2-b]pyridin-3-yl)isonicotinamide]
1.4 µM	5.29	Cn1nnnc1C(=O)N[C@@H]1CCc2cc(-c3noc(C(F)F)n3)ccc21 [Compound 189, (R)-N-(5-(5-(difluoromethyl)-1,2,4-oxadiazol-3-yl)-2,3-dihydro-1H-inden-1-yl)-1-methyl-1H-tetrazole-5-carboxamide]
0.6 µM	5.70	Cc1cc(C(=O)NC2COc3cc(-c4noc(C(F)F)n4)ccc32)n(C)n1 (centres unmarked) [Compound 190, N-(6-(5-(difluoromethyl)-1,2,4-oxadiazol-3-yl)-2,3-dihydrobenzofuran-3-yl)-1,3-dimethyl-1H-pyrazole-5-carboxamide]
0.3 µM	6.05	Cc1cc(C(=O)N[C@@H]2COc3cc(-c4noc(C(F)F)n4)ccc32)n(C)n1 [Compound 191, (S)-N-(6-(5-(difluoromethyl)-1,2,4-oxadiazol-3-yl)-2,3-dihydrobenzofuran-3-yl)-1,3-dimethyl-1H-pyrazole-5-carboxamide]
1.0 µM	5.42	Cc1nc(C)c(C(=O)NC2COc3cc(-c4noc(C(F)F)n4)ccc32)o1 (centres unmarked) [Compound 192, N-(6-(5-(difluoromethyl)-1,2,4-oxadiazol-3-yl)-2,3-dihydrobenzofuran-3-yl)-2,4-dimethyloxazole-5-carboxamide]
0.5 µM	5.68	Cc1nc(C)c(C(=O)N[C@@H]2COc3cc(-c4noc(C(F)F)n4)ccc32)o1 [Compound 193, (S)-N-(6-(5-(difluoromethyl)-1,2,4-oxadiazol-3-yl)-2,3-dihydrobenzofuran-3-yl)-2,4-dimethyloxazole-5-carboxamide]
10.1 µM	< 4.41	Cc1cc(C(=O)NC2COc3cc(-c4noc(C(F)F)n4)cnc32)ccn1 (centres unmarked) [Compound 195, N-(6-(5-(difluoromethyl)-1,2,4-oxadiazol-3-yl)-2,3-dihydrofuro[3,2-b]pyridin-3-yl)-2-methylisonicotinamide]
